Measurements from patent publication US5866570A, “Treatment of vascular leakage and related syndrome such as septic shock by administration of metalloproteinase inhibitors” (Wisconsin Alumni Research Foundation, priority 1994, dated 1999).

Legend:
[1] = system: HT-1080 cells (human fibrosarcoma); assay: in vitro invasion assay through matrigel (Transwell); type: cell-based
Experimental: (§1) Razoxane, various bis(hydroxylated)(2,6-dioxopiperazine)s, and various hydrophobic analogs were tested in an in vitro assay for inhibition of tumor cell penetration of a reconstituted basement membrane, matrigel, isolated from the Englegbreth-Holm-Swarm (EHS) tumor (disclosed in Kleinman et al., Biochem. (1982), 24, 6188-6193) first described by Albini et al, Cancer Res. (1987) 47, 3234-3245. An 8 μm pore filter coated with matrigel separates a lower compartment containing a chemoattractant and an upper compartment containing the cells and test compound. In particular, the following compounds were tested: razoxane, (1α, 2α, 4α, 5α)-4,4'-(4,5-dihydroxy-1,2-cyclohexanediyl)bis(2,6-piperazinedione); (1α, 2α, 4β, 5β)-4,4'-(4,5-dihydroxy-1,2-cyclohexanediyl)bis(2,6-piperazinedione);(1β, 2α,4α,5α)-4,4'-(4,5-dihydroxy-1,2-cyclohexanediyl)bis(2,6-piperazinedione); (1β, 2α, 4α,5β)-4,4'-(4,5-dihydroxy-1,2-cyclohexanediyl)bis(2,6piperazinedione); (1α, 2β, 4α,5β)-4,4'-(4,5-dihydroxy-1,2cyclohexanediyl)bis(2,6-piperazinedione); N,N'-cyclohexane-1,2-diylbis[N(2-ethoxy-2-oxoethyl)]glycine; N,N'-4-cyclohexene-1,2-diylbis[N-(2-ethoxy-2-oxoethyl)-glycine ester; (3aα, 5β, 6β, 7aα)-4,4'-(hexahydro-2,2-dimethyl1,3-benzodioxole-5,6-diyl)bis(2,6-piperazinedione); (3aα, 5α, 6α, 7aα)-4,4'-(hexahydro-2,2-dimethyl-1,3-benzodioxole-5,6-diyl)bis(2,6- piperazinedione); (3aα, 5α, 6β, 7aα)-4,4'-(hexahydro-2,2-dimethyl-1,3-benzodioxole-5,6-diyl)bis-2,6- piperazinedione; (3aα, 5β, 6α, 7aβ)-4,4'-(hexahydro-2,2dimethyl-1,3-benzodioxole-5,6-diyl)bis(2,6-piperazinedione); and (3aα, 5α, 6β, 7aβ)-4,4'-(hexahydro-2,2-dimethyl-1,3-benzodioxole-5,6-diyl) bis(2,6piperazinedione). Metastatic cells are able to degrade the basement membrane protein barrier and migrate through the pores of the filter whereas non-metastatic cells remain on the upper surface. The cells that pass to the under side of the filter are then counted under a microscope. […] Variations of this assay have been used to correlate this in vitro invasion with metastatic potential in vivo (Albini et al. (Id.); Hendrix et al. Cancer Letters (1987); 38, 127-247; Repesh L. A., Invasion Metastasis (1989) 9, 192-208 to select for more highly invasive cells (Teranova et al., Proc. Nat. Acad. Sci., (1986), 83, 465, 464; Tullberg et al., Invasion Metastasis, (1989), 9, 13-26; Sefer et al., Biotechniques, (1990), 9, 324-331), and to test compounds for inhibition (Nakajima et al., Cancer Res. (1989), 49, 1698-1756).
(§2) This method has been improved to increase the number of assays which may be performed and analyzed per day. In particular, such improvement comprises the use of disposable Transwells (Costar) units described by Repesh et al., Invasion Metastasis, (1989), 9, 192-208, which consist of an 8 μm pore filter attached to an insert that fits in a 24 well culture plate. Matrigel concentration is titrated from zero to complete inhibition of motility of each invasive cell line used in the assay and for each batch of matrigel. The matrigel concentration which yields 50% or greater inhibition of motility in a 6 hr assay (usually from 15 to 50 μg of protein per filter) is chosen for determination of invasion. Motility of cells through the 8 μm filters is not by passive diffusion since the pore size is smaller than the cells, and is determined in the same chamber in the absence of matrigel. Motility is stimulated two-fold by the presence of fibroblast conditioned medium (3T3 cells) as a chemoattractant (data not shown). The cell lines used are HT-1080, a human fibrosarcoma, and MDA-MB-231, a human breast carcinoma (both available from the American Type Tissue Culture). These cell lines express both the 72 kD and the 92 kD collagenase type IV as determined by zymography (data not shown).
(§3) For inhibition studies, 5×10^5 cells are plated in 200 μl of DMEM+0.1% BSA+the inhibitor (or appropriate solvent control) into the upper chamber of the Transwell. […]

[2] = system: mouse L cell; conditions: l cells; read-out: ID50 inhibition of colony formation; cited from earlier work
[3] = system: V-79A fibroblasts; conditions: tissue culture; cited from earlier work
[4] = system: L1210 leukemia; conditions: 13 doses at 30 mg/kg; cited from earlier work
[5] = system: OVCAR-3 cells; assay: OVCAR-3 human ovarian cancer model in nude mice; type: in vivo; conditions: 30 mg/kg i.p., one dose/day 5 consecutive days/week, from 24 hours before 20 million cells i.p.
Experimental: Dose and Schedule--Razoxane was suspended in sterile 1% CMC (carboxymethyl cellulose) 0.9% NaCl by sonication in a water bath. Mice received 30 mg/kg drug in 10 μl/g CMC per i.p. dose beginning 24 hours prior to cell implantation. Each mouse received one dose/day i.p. for 5 consecutive days with 2 days of recovery. Treatment continued until mouse death or sacrifice.
OVCAR-3 cells--were received from Dr. Tom Hamilton and are maintained by passage of ascites directly from the mouse. The ascites is harvested from the mouse by rinsing the peritoneal cavity with HBSS, treated briefly with Dispase to dissociate clumps, centrifuged, counted, resuspended in HBSS and 20 million cells injected i.p. per mouse.
Mice--HSD nu/nu female mice 6 weeks old (18-22 g) are weighed, tagged with a metal ear clip, and randomized for treatment or control groups. Mice are weighed daily and the dose of drug or vehicle is calculated.
Visible ascites appears around day 14 with small solid tumors at the sites of injections. The mice swell with hemorrhagic ascites prior to death. At necropsy mice contain massive invasive carcinomatosis obliterating most of the normal organs of the peritoneal cavity with significant metastasis to the lungs. A 25% increase in mean/median survival time with drug treatment is considered significant in this model.

[6] = system: S180 tumors; conditions: cited from earlier work
[7] = system: retired bred BALB/C mice; assay: septic shock induced by i.v. endotoxin (E. coli 026:B6); type: in vivo; conditions: razoxane 100 μg/g i.p. before 200 μg endotoxin i.v.; heparin
Experimental: Two retired bred BALB/C mice were injected with 100 μg of endotoxin and 3 units of heparin i.v., followed by 10 units heparin subcutaneously. Another two mice were treated the same except with 200 μg of endotoxin. All died within 24 h.
Six retired bred BALB/C mice were treated with razoxane (100 μg/g body weight i.p.). The mice were then injected with 200 μg of endotoxin and 3 units of heparin i.v., followed by 10 units heparin subcutaneously.

[8] = system: MDA-MB-231 cells (human breast carcinoma); assay: in vitro invasion assay through matrigel (Transwell); type: cell-based; conditions: preliminary screen
Experimental: as §1, §2, §3

SMILES	consistent inhibition of invasion without effect on motility ([1]; from 250 μM to 1 mM)	IC50 [2]	cytotoxic activity [3]	increase in survival time [4]	difference in the survival time between treated and control mice [5]	inhibition of S180 tumors ([6]; 5 doses at 30 mg/kg)	calculated ratio of maximum tolerated dose to the dose required for 90% inhibition of S180 tumor growth ([6]; therapeutic index in vivo)	mice surviving more than 24 h [7]	inhibition of invasion [8]	effect on cell motility ([8]; no matrigel)	inhibition at 125 µM ([1]; Homo sapiens, HT-1080, at 125 μM, 6 hour assay, read-out: maximum inhibition of invasion)	inhibition of invasion ([1]; preliminary screen)	effect on cell motility ([1]; preliminary screen, no matrigel)
CC(CN1CC(=O)NC(=O)C1)N1CC(=O)NC(=O)C1 (stereo not shown) [razoxane]	could not be demonstrated	3000 nM	has cytoxic activity	137%	> 33%	93%	9.8	Two out of six					
CC1(C)O[C@H]2C[C@H](N3CC(=O)NC(=O)C3)[C@@H](N3CC(=O)NC(=O)C3)C[C@@H]2O1 (relative stereo) [Compound 80, (3aα, 5β, 6α, 7aβ)-4,4'-(hexahydro-2,2-dimethyl-1,3-benzodioxole-5,6-diyl)bis(2,6-piperazinedione)]									inhibit invasion	without inhibiting cell motility	62%	inhibit invasion	without inhibiting cell motility
